Data as given in patent US20140155384A1, “COMPOUNDS AND METHODS OF TREATING DIABETES” (Medivation Technologies, Inc., priority 2011, published 2014).

Legend:
[1] = molecular target: T1, rat adrenergic α1B receptor (Rattus norvegicus, UniProt P15823); assay: Radioligand binding, adrenergic α1B receptor ([3H]Prazosin); settings: 0.1 μM compound, Wistar rat liver, read-out: Percentage inhibition of ligand binding, Adrenergic α1B
T1 construct: rat adrenergic α1B receptor obtained from Wistar Rat liver; from tissue; host or cells: Wistar rat liver
T1 sequence (P15823 1-515): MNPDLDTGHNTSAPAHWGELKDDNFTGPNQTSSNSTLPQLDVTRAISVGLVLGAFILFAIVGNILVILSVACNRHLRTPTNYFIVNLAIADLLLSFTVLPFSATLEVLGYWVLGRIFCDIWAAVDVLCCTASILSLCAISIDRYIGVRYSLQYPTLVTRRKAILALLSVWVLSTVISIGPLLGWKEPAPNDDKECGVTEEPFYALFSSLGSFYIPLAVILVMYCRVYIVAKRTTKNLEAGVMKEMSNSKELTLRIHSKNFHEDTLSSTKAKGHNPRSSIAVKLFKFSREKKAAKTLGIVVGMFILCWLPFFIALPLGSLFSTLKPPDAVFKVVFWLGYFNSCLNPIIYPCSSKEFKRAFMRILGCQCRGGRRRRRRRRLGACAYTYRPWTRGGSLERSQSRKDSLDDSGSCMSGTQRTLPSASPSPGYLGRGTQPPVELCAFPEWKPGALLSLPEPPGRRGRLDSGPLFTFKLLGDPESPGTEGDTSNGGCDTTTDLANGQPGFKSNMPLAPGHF
Procedure, shortened: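 Wistar rat liver α1B receptor preparation incubated with 0.25 nM [3H]prazosin and compound for 60 min at 25° C in 50 mM Tris-HCl pH 7.4, 0.5 mM EDTA; nonspecific binding defined with 10 μM phentolamine.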

[2] = molecular target: T2, human recombinant adrenergic α1D receptor (Homo sapiens, UniProt P25100); assay: Radioligand binding, adrenergic α1D receptor ([3H]Prazosin); settings: 0.1 μM compound; HEK-293 cells; 0.6 nM [3H]Prazosin; read-out: Percentage inhibition of ligand binding, Adrenergic α1D
T2 construct: expressed in transfected cells; host or cells: HEK-293
T2 sequence (P25100 1-572): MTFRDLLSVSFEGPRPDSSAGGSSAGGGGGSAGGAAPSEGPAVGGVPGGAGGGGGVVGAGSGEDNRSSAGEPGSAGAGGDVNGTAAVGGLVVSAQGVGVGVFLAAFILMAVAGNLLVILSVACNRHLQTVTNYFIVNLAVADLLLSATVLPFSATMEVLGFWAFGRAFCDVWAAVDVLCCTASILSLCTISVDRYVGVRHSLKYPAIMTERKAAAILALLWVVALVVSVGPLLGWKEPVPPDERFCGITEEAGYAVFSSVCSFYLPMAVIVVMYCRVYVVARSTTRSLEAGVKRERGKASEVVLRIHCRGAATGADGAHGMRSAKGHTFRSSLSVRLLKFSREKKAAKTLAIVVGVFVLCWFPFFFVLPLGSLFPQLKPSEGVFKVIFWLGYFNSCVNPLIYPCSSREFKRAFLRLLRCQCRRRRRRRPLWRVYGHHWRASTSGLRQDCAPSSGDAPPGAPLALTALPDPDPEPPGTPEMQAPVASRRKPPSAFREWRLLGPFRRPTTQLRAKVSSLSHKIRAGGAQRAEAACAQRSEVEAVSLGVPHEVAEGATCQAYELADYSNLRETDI
Protocol: Compounds were incubated with 0.6 nM [3H]Prazosin for 60 min at 25° C. Non-specific binding was estimated in the presence of 10 μM phentolamine. Receptor proteins were filtered and washed, the filters were then counted to determine [3H]Prazosin specifically bound. Compounds were screened at 1 μM or lower, using 1% DMSO as vehicle. Biochemical assay results are presented as the percent inhibition of specific binding in Table 2.

[3] = molecular target: T3, human recombinant adrenergic α2A receptor (Homo sapiens, UniProt P08913); assay: Radioligand binding, adrenergic α2A receptor ([3H]MK-912); settings: 0.1 μM compound; Sf9 cells; 1 nM [3H]MK-912; read-out: Percentage inhibition of ligand binding, Adrenergic α2A
T3 construct: expressed in transfected cells; host or cells: insect Sf9 cells
T3 sequence (P08913 1-465): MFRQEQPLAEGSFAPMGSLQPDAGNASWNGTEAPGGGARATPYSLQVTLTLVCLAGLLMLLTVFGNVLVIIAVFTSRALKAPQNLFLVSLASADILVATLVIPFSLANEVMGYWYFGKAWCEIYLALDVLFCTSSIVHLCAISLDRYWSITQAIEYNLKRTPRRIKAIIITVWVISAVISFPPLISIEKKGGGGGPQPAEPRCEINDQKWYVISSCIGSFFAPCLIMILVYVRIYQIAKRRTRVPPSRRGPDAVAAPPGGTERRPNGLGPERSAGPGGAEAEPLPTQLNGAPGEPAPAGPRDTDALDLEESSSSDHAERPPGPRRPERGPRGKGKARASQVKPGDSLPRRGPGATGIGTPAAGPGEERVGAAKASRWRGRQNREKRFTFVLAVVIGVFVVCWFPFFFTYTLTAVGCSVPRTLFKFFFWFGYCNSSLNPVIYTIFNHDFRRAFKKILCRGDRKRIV
Procedure, shortened: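 Percent inhibition of specific [3H]MK-912 (1 nM) binding measured by filtration counting, compounds tested at ≤1 μM in 1% DMSO. Receptor: human α2A from Sf9 cells; incubation 60 min, 25 °C, pH 7.4; 10 μM WB-4101 defined nonspecific binding.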

[4] = molecular target: T4, human recombinant adrenergic α2B receptor (Homo sapiens, UniProt P18089); assay: Radioligand binding, adrenergic α2B receptor ([3H]Rauwolscine); settings: 0.1 μM compound, CHO-K1 cells, read-out: Percentage inhibition of ligand binding, Adrenergic α2B
T4 construct: expressed in transfected cells; host or cells: CHO-K1
T4 sequence (P18089 1-450): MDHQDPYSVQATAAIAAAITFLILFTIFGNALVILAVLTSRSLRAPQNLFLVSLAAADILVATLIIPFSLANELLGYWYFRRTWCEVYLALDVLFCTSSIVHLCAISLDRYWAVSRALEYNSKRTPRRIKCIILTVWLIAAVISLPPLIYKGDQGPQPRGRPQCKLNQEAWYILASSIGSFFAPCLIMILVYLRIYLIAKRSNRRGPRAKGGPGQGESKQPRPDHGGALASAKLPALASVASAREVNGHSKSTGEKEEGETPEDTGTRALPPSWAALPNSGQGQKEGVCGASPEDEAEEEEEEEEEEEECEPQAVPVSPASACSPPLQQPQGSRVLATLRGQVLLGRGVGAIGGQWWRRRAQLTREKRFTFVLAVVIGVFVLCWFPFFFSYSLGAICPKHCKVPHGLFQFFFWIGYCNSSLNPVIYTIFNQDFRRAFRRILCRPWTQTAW
Procedure, shortened: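 Percent inhibition of specific [3H]Rauwolscine (2.5 nM) binding, compounds at ≤1 μM, 1% DMSO vehicle, 10 μM prazosin defining nonspecific. Receptor: human α2B expressed in CHO-K1 cells, 60 min incubation at 25 °C in Tris-HCl pH 7.4 buffer (MgCl2, EDTA, BSA); filtered, washed, counted.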

Row | Compound | inhibition at 0.1 µM [1] | inhibition at 0.1 µM [2] | inhibition at 0.1 µM [3] | inhibition at 0.1 µM [4]
1 | Cc1ccc2c(c1)c1c(n2-c2ccccc2-c2cnn(C)c2)CCN(C)C1 [Compound No. 86, 2,8-dimethyl-5-(2-(1-methyl-1H-pyrazol-4-yl)phenyl)-2,3,4,5-tetrahydro-1H-pyrido[4,3-b]indole] | 26% | 22% | 33% | 67%
2 | Cc1ccc2c(c1)c1c(n2-c2ccccc2-c2cncc3ccccc23)CCN(C)C1 [Compound No. 87, 5-(2-(isoquinolin-4-yl)phenyl)-2,8-dimethyl-2,3,4,5-tetrahydro-1H-pyrido[4,3-b]indole] | 13% | 16% | 30% | 18%
3 | Cc1ccc2c(c1)c1c(n2-c2ccccc2-c2cc3ccccc3s2)CCN(C)C1 [Compound No. 103, 5-(2-(benzo[b]thiophen-2-yl)phenyl)-2,8-dimethyl-2,3,4,5-tetrahydro-1H-pyrido[4,3-b]indole] | 41% | 62% | 98% | 97%
4 | Cc1ccc2c(c1)c1c(n2-c2ccccc2-c2cccc3[nH]ncc23)CCN(C)C1 [Compound No. 105, 5-(2-(1H-indazol-4-yl)phenyl)-2,8-dimethyl-2,3,4,5-tetrahydro-1H-pyrido[4,3-b]indole] | 71% | 65% | 79% | 84%

Results, then the molecule that gave them:

Row | inhibition at 0.1 µM [1] | inhibition at 0.1 µM [2] | inhibition at 0.1 µM [3] | inhibition at 0.1 µM [4] | Compound
5 | 18% | 64% | 20% | 71% | CC(=O)Nc1ccc(-c2ccccc2-n2c3c(c4cc(C)ccc42)CN(C)CC3)cn1 [Compound No. 83, N-(5-(2-(2,8-dimethyl-3,4-dihydro-1H-pyrido[4,3-b]indol-5(2H)-yl)phenyl)pyridin-2-yl)acetamide]
6 | 54% | 58% | 68% | 89% | Cc1ccc2c(c1)c1c(n2-c2ccccc2-c2ccc(F)nc2)CCN(C)C1 [Compound No. 84, 5-(2-(6-fluoropyridin-3-yl)phenyl)-2,8-dimethyl-2,3,4,5-tetrahydro-1H-pyrido[4,3-b]indole]
7 | 36% | 20% | 15% | 80% | Cc1ccc2c(c1)c1c(n2-c2cnc3ccccc3c2)CCN(C)C1 [Compound No. 88, 2,8-dimethyl-5-quinolin-3-yl-2,3,4,5-tetrahydro-1H-pyrido[4,3-b]indole]
8 | 57% | 50% | 85% | 90% | Cc1ccc2c(c1)c1c(n2-c2ccccc2-c2sccc2C)CCN(C)C1 [Compound No. 102, 2,8-dimethyl-5-(2-(3-methylthiophen-2-yl)phenyl)-2,3,4,5-tetrahydro-1H-pyrido[4,3-b]indole]
9 | 0% | 3% | 75% | 28% | Cc1ccc2c(c1)c1c(n2-c2cccc(-c3ccc(S(C)(=O)=O)cc3)c2)CCN(C)C1 [Compound No. 131, 2,8-dimethyl-5-(4′-(methylsulfonyl)biphenyl-3-yl)-2,3,4,5-tetrahydro-1H-pyrido[4,3-b]indole]
10 | 33% | 28% | 17% | 69% | Cc1ccc2c(c1)c1c(n2-c2ccc(-c3ccncc3)cn2)CCN(C)C1 [Compound No. 132, 5-(3,4′-bipyridin-6-yl)-2,8-dimethyl-2,3,4,5-tetrahydro-1H-pyrido[4,3-b]indole]
11 | 63% | 53% | 31% | 77% | Cc1ccc2c(c1)c1c(n2-c2ccc(-c3cccnc3)cn2)CCN(C)C1 [Compound No. 133, 5-(3,3′-bipyridin-6-yl)-2,8-dimethyl-2,3,4,5-tetrahydro-1H-pyrido[4,3-b]indole]
